Key:
[1] = test system: UNC-52 (perlecan) in HE250; experiment: Perlecan immunolocalization; type: in vivo, Caenorhabditis elegans; conditions: HE250, 50 μM ThT, 24 h at 25° C.
Method: (§1) For fluorescent microscopy, TJ356 zIs356 IV [daf-16::daf-16-gfp+rol-6] or CF2189 Is001(skn-1::gfp+rol-6) were paralyzed with 1 mM levamisole mounted on 1% agarose pads and imaged using Olympus BX51 (60× objective) and HCImage software (Hamamatsu). For immunofluorescence, N2, […], CB1157 unc-54(e1157) or CL4176 dvIs27 [myo-3::Aβ(3 to 42)-let 3′UTR(pAF29); pRF4 (rol-6(su1006))] worms were treated for 24-36 h with or without 50 μM ThT at 25° C. After this period the worms were collected, rinsed, and fixed in 4% paraformaldehyde overnight. […] Paramyosin and perlecans were detected with primary monoclonal antibodies 5-23 and MH3 (developed by Henry Epstein and Robert H. Waterston and obtained from the Developmental Studies Hybridoma Bank developed under the auspices of the NICHD and maintained by The University of Iowa, Department of Biology, Iowa City, Iowa 52242) and AlexaFluor 633 goat anti-mouse (Molecular Probes) as secondary antibody. Soluble oligomers and Aβ peptide were detected with anti polyclonal All (Invitrogen) and 6E10 monoclonal (Covance) primary antibodies, respectively, with AlexaFluor 568 goat anti-rabbit and AlexaFluor 488 goat anti-mouse (Molecular Probes) as secondary antibodies. Images were processed and quantified by using Image Analyst MK II (Novato, Calif.).

[2] = test system: ZZ26 unc-63(x26)I; conditions: 50 μM levamisole, after 3 days of treatment
Method: Scoring for paralysis was initiated 2 and 8 days after temperature upshift for CL4176 and AM140, respectively. […] For sensitivity to EtOH or levamisole resistance, CW152 gas-1 (fc21) X and ZZ26 unc-63(x26)I worms were picked into 0.4 M EtOH or 50 μM levamisole, respectively, equilibrated for 5 min, and scored for paralysis as described above. Treated and untreated worms were compared with an unpaired t-test (implemented in Prism 4, Graphpad™ Software, Inc., San Diego, Calif., USA).

[3] = test system: N2 worms raised on 1×10^9 cfu/ml; experiment: Lifespan under dietary restriction (diluted bacterial food); conditions: 20° C.
Method: Plates were prepared as described (Chen, D., Thomas, E. L. & Kapahi, P. HIF-1 modulates dietary restriction-mediated lifespan extension via IRE-1 in Caenorhabditis elegans. PLoS Genet. 5, e1000486, (2009), but bacterial concentration was adjusted to 1.0×10^12 cfu/ml and diluted to achieve bacterial concentration of 1.0×10^9 cfu/ml. Diluted bacterial cultures were spotted onto DR agar plates, which were modified from the standard nematode growth media (NGM) plates by excluding peptone and increasing agar from 1.7% to 2.0%. Carbenicillin ([…]) was added to the agar plates to further prevent bacterial growth. Synchronized L4 larvae grown under standard lab conditions (NGM plates with OP50 food, 20° C.) were transferred to fresh DR agar plates in presence or absence of 1, 10, 25, 50 and 100 μM ThT and lifespans scored as described above.

[4] = test system: hsp-6 RNA; experiment: Real time quantitative PCR, hsp-6; type: in vivo, Caenorhabditis elegans; conditions: 50 μM ThT, 3 and 6 days of treatment
Method: Twelve single adults from control or 50 μM ThT populations were picked after 3, 6 and 12 days of treatment into 5 μl of distilled water and flash frozen until extraction. Individual worms were extracted using the RNeasy Micro Kit, TissueLyser and QIAcube (Qiagen). Using the manufacturer's standard Animal Tissue protocol, each sample was homogenized in buffer RLT/Bme (Qiagen) on the TissueLyser (6 min total at 20 Hz). Samples, reagents and columns were then loaded into the QIAcube robot, and processed using the “RNeasy Micro—Animal tissues and cells—DNase digest” program. Each sample was then eluted in 14 μl of Nuclease-free water. cDNA templates for the Real Time PCR reactions were made using a combination of Message Sensor RT kit (Ambion's) and TaqMan PreAmp Master Mix (Applied Biosystems). The entire worm sample was added to the RT reaction and reversed transcribed at 50° C. for 20 min, using Message Sensor's “Two Step RT-PCR Protocol” (sample RT's were randomized). Then 2.5 μl of the cDNA sample was pre-amplified with a “4×Multiplex Primer Mix” for 14 cycles using TaqMan PreAmp master mix and protocol (ABI). Two modifications were made to ABI's protocol: 1. the reaction volume was reduced to 10 μl and 2. after pre-amplification, each cDNA sample was diluted 1:5 with 1XTE Buffer (Promega). cDNA samples were stored at −20° C. until needed. […]

[5] = test system: CL4176 (Aβ3-42 expressed in muscle); experiment: Worm paralysis assay, Aβ model; type: in vivo, Caenorhabditis elegans
[6] = target: Aβ3-42 aggregates in CL4176 (Homo sapiens, UniProt P05067); experiment: Aβ aggregation in vivo by immunohistochemistry; set-up: species or system Caenorhabditis elegans; conditions: CL4176, 50 μM ThT
Chain of Aβ3-42 aggregates in CL4176 (P05067 674-713): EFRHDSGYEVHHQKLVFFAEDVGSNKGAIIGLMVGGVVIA
Method: For immunofluorescence, N2, unc-He250 52(e669su250), CB1157 unc-54(e1157) or CL4176 dvIs27 [myo-3::Aβ(3 to 42)-let 3′UTR(pAF29); pRF4 (rol-6(su1006))] worms were treated for 24-36 h with or without 50 μM ThT at 25° C. After this period the worms were collected, rinsed, and fixed in 4% paraformaldehyde overnight. After fixation, worms were rinsed twice with 1 ml of 10 mM Tris-HCl pH 7.5 and then permeabilized by 24 h exposure to β-mercaptoethanol at 37° C. followed by collagenase treatment (2 mg/ml for 1-1.5 at 37° C.) to allow for digestion of the cuticle. Paramyosin and perlecans were detected with primary monoclonal antibodies 5-23 and MH3 (developed by Henry Epstein and Robert H. Waterston and obtained from the Developmental Studies Hybridoma Bank developed under the auspices of the NICHD and maintained by The University of Iowa, Department of Biology, Iowa City, Iowa 52242) and AlexaFluor 633 goat anti-mouse (Molecular Probes) as secondary antibody. Soluble oligomers and Aβ peptide were detected with anti polyclonal All (Invitrogen) and 6E10 monoclonal (Covance) primary antibodies, respectively, with AlexaFluor 568 goat anti-rabbit and AlexaFluor 488 goat anti-mouse (Molecular Probes) as secondary antibodies. Images were processed and quantified by using Image Analyst MK II (Novato, Calif.).

[7] = test system: aggregation-prone soluble oligomeric protein (A11 antibody) in N2; experiment: A11 immunolocalization of soluble oligomeric protein, N2; type: in vivo, Caenorhabditis elegans; conditions: N2, 11 days old, 50 μM ThT
Method: as §1

Cc1ccc2c(c1)sc(-c1ccc(N(C)C)cc1)[n+]2C.[Cl-] [ThT, 4-(3,6-dimethyl-1,3-benzothiazol-3-ium-2-yl)-N,N-dimethylaniline chloride]
perlecan organization [1]: restored perlecan organization
levamisole resistance [2]: increases levimisole resistance
lifespan in bacterial dilution DR model ([3]; 50 μM ThT): detrimental to lifespan
increase in lifespan in bacterial dilution DR model ([3]; 1 and 10 μM ThT): 24%
hsp-6 RNA levels [4]: up-regulated
paralysis when treated after aggregation induction ([5]; CL4176, 50 μM ThT added 18 h after induction of aggregate formation): rescued the Aβ3-42 aggregation-induced paralysis
proportion of paralyzed worms ([5]; CL4176, 25° C., 50 μM ThT, 100 μM curcumin): significantly decrease the proportion of paralyzed worms
Aβ aggregate formation and muscle integrity [6]: reduced aggregate formation and preserved the muscle integrity
A11-positive oligomeric material [7]: significantly decreased
